Measured values: patent publication US8629301B2, “Process for the purification of benzphetamine hydrochloride” (Mallinckrodt LLC, priority 2004, dated 2014)

Test: partition between organic layer (toluene) and aqueous layer at adjusted pH
Details: for logD hydrocarbon water: toluene/water

| SMILES | partition coefficient (ratio of equilibrium concentration in the organic layer to that in the aqueous layer) (pH 4) | partition coefficient (ratio of equilibrium concentration in the organic layer to that in the aqueous layer) (pH 8) | partition coefficient (ratio of equilibrium concentration in the organic layer to that in the aqueous layer) (pH 10) | logD hydrocarbon water (pH 6) | partition coefficient (ratio of equilibrium concentration in the organic layer to that in the aqueous layer) (pH 6) | logD hydrocarbon water (pH 10) |
| --- | --- | --- | --- | --- | --- | --- |
| C[C@@H](Cc1ccccc1)N(C)Cc1ccccc1 [Benzphetamine, d-N-methyl-N-benzyl-beta-phenylisopropylamine] | 0.600 | ∞ | ∞ | 1.87 |  |  |
| CN[C@@H](C)Cc1ccccc1 [Methamphetamine, methamphetamine] | 0.015 | 0.124 |  |  | 0.000 | 0.527 |
